The test system of series [1] is Huh-7. Description: cells. Conditions: Homo sapiens, Huh-7, 72 h.
In series [2] the test system is SK-HEP1. The experiment in a line: Antiproliferative activity against human SKHEP1 cells without FGFR4 gene amplification assessed as inhibition of cell proliferation incubated for 72 hrs by CellTiter-Glo method. Format: functional, cell-based. Conditions: SK-HEP1, 72 h. For orientation: Cellular ATP, detected with luciferase, serves as a proxy for viable cell number.

In series [3] the test system is Hep 3B2. The experiment in a line: cells. Conditions: Homo sapiens, Hep3B, 72 h.
The target in series [4] is Fibroblast growth factor receptor 1 (Homo sapiens, UniProt P11362). The experiment in a line: Inhibition of FGFR1 (unknown origin) incubated for 60 mins by caliper microfluidic mobility shift technology based assay.
Sequence of Fibroblast growth factor receptor 1 (P11362 whole entry): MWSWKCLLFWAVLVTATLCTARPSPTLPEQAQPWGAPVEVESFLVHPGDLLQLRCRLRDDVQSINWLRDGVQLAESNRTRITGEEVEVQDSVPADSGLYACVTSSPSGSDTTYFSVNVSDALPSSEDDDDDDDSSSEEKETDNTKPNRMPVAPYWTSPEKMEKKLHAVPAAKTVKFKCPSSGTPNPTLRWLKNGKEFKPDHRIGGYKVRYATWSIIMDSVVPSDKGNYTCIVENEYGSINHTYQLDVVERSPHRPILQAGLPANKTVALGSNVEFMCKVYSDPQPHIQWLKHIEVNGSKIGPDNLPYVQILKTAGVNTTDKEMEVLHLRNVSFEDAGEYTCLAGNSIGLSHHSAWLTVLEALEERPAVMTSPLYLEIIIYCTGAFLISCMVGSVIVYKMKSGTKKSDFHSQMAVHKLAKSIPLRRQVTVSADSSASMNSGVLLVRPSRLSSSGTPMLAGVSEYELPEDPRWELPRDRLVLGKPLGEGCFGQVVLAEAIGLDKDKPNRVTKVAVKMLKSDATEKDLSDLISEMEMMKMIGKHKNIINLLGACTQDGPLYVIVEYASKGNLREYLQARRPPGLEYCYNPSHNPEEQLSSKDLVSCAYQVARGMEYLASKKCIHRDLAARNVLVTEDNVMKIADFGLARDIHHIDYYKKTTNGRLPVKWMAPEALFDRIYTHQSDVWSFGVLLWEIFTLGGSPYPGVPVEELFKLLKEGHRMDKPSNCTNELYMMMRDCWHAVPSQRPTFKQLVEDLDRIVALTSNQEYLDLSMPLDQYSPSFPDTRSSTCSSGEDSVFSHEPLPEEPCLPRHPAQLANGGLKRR
Series [5] can be described thus: AUC in Sprague-Dawley rat at 5 mg/kg, ig measured after 5 mins to 24 hrs by LC-MS analysis. Format: ADME, organism-based. Set-up: dose 5 mg/kg, time 0.083-24 hr, route […]. Conditions: in vivo, po.
The nature of series [6]: Cmax in Sprague-Dawley rat at 5 mg/kg, ig measured after 5 mins to 24 hrs by LC-MS analysis. The series is classed as ADME, organism-based. Set-up: dose 5 mg/kg, route […]. Conditions: in vivo, po.
Series [7] can be described thus: Mean residence time in Sprague-Dawley rat at 5 mg/kg, ig measured after 5 mins to 24 hrs by LC-MS analysis. Format: ADME, organism-based. Conditions: in vivo, po.
A short description of series [8]: Half life in Sprague-Dawley rat at 5 mg/kg, ig measured after 5 mins to 24 hrs by LC-MS analysis. Format: ADME, organism-based. Conditions: in vivo, po.
Series [9] deals with Huh-7. The experiment in a line: Antitumor activity against human HuH7 cells xenografted in nude BALB/c mouse assessed as inhibition of tumor growth at 30 mg/kg bid for 14 days and measured twice per week relative to untreated control. The series is classed as functional. Conditions: Huh-7, 336 h, read-out: TGI. In general terms: Xenograft models place foreign cells or tissue in a host animal.

For series [10], the system named is Hep 3B2. The experiment in a line: Antitumor activity against human Hep3B cells xenografted in nude BALB/c mouse assessed as inhibition of tumor growth at 10 mg/kg bid for 14 days and measured twice per week relative to untreated control. Conditions: 336 h, read-out: TGI. Format: functional.

The source of these data is ChEMBL document CHEMBL4339212, “Novel 7-formyl-naphthyridyl-ureas derivatives as potential selective FGFR4 inhibitors: Design, synthesis, and biological activity studies” (Bioorg Med Chem, 2019).

The term IC50 denotes the concentration needed to halve the response being measured. As a reminder, the AUC is concentration integrated over time. A higher AUC goes with more exposure. Broadly, the Cmax is the highest concentration seen after dosing. Broadly, the MRT is a mean duration of stay, worked out from the concentration-time curve. The half-life is the time in which the quantity being followed falls by half. A low value points to fast loss.

Each structure is given as a SMILES string.

With `COCCNc1cc(NC(=O)N2CCCc3cc(CN4CCOCC4=O)c(C=O)nc32)ncc1C#N`, the IC50 was 17.3 nM in series [1], more than 10000 nM in series [2], 8.9 nM in series [3] and more than 10000 nM in [4].
In the case of `CO[C@@H]1CCC[C@H]1Nc1cc(NC(=O)N2CCCc3cc(CN4CCOCC4=O)c(C=O)nc32)ncc1C#N`, the IC50 in [1] is 2.7 nM; in [2], more than 10000 nM; in series [3], 1 nM; in [4], more than 10000 nM.
Consider `COC[C@@H]1CCCN1c1cc(NC(=O)N2CCCc3cc(CN4CCOCC4=O)c(C=O)nc32)ncc1C#N`, for which the IC50 is 65.3 nM in [1], more than 10000 nM in series [2], 22.9 nM in series [3] and more than 10000 nM in [4].
On to `COC[C@@H](C)Oc1cc(NC(=O)N2CCCc3cc(CN4CCCCOC4=O)c(C=O)nc32)ncc1C#N`, for which the IC50 in series [1] was 4.6 nM; in series [2], more than 10000 nM; in series [3], 2.2 nM; in series [4], more than 10000 nM.
Consider `COCCNc1cc(NC(=O)N2CCCc3cc(CN4CC[C@H](OC)C4=O)c(C=O)nc32)ncc1C#N`, for which the IC50 was 9 nM in series [1], more than 10000 nM in series [2], 2.3 nM in series [3] and more than 10000 nM in series [4]. This molecule also came in with an AUC in series [5] of 11300 ng·h/mL.
`CN(C)C1CCN(c2cc(NC(=O)N3CCCc4cc(CN5CCOCC5=O)c(C=O)nc43)ncc2C#N)C1` (stereo not drawn): the IC50 in series [1] is 297 nM; in [2], more than 10000 nM; in series [3], 93.8 nM; in series [4], more than 10000 nM.
Take `CO[C@@H]1CCN(Cc2cc3c(nc2C=O)N(C(=O)Nc2cc(N[C@@H]4CCOC4)c(C#N)cn2)CCC3)C1=O`: the IC50 in [1] was 5.4 nM; in series [2], more than 10000 nM; in series [3], 1.8 nM; in series [4], more than 10000 nM.
For the molecule `CO[C@H]1CCN(c2cc(NC(=O)N3CCCc4cc(CN5C(=O)OC[C@@H]5C)c(C=O)nc43)ncc2C#N)C1`, the IC50 in series [1] was 34.6 nM; in series [2], more than 10000 nM; in [3] it was 39.3 nM; in [4], more than 10000 nM.
With `CO[C@@H]1CCN(c2cc(NC(=O)N3CCCc4cc(CN5CCOC5=O)c(C=O)nc43)ncc2C#N)C1`, the IC50 in [1] is 10.2 nM; in series [2] it was more than 10000 nM; in series [3], 9.9 nM; in [4] it was more than 10000 nM.
Consider `CO[C@H]1CCN(c2cc(NC(=O)N3CCCc4cc(CN5CCOC5=O)c(C=O)nc43)ncc2C#N)C1`, for which the IC50 in series [1] was 29.6 nM; in series [2], more than 10000 nM; in [3] it was 38.7 nM; in [4], more than 10000 nM.
Take `N#Cc1cnc(NC(=O)N2CCCc3cc(CN4CCOCC4=O)c(C=O)nc32)cc1S[C@@H]1CCOC1`: the IC50 in series [1] was 50.1 nM; in [2] it was more than 10000 nM; in series [3], 22.7 nM; in series [4], more than 10000 nM. Also, the AUC in [5] came to 6780 ng·h/mL.
With `N#Cc1cnc(NC(=O)N2CCCc3cc(CN4CCOCC4=O)c(C=O)nc32)cc1S[C@H]1CCOC1`, the IC50 in series [1] is 36.1 nM; in series [2], more than 10000 nM; in [3], 14.5 nM; in [4], more than 10000 nM. In addition, the AUC in series [5] stood at 1950 ng·h/mL.
Turning to `COc1ccccc1Oc1cc(NC(=O)N2CCCc3cc(CN4CCOCC4=O)c(C=O)nc32)ncc1C#N`, the IC50 was 69 nM in [1], more than 10000 nM in series [2], 46 nM in series [3] and more than 10000 nM in series [4].
For the molecule `COCCNc1cc(NC(=O)N2CCCc3cc(CN4CC[C@@H](OC)C4=O)c(C=O)nc32)ncc1C#N`, the IC50 was 8.3 nM in [1], more than 10000 nM in [2], 1.9 nM in series [3] and more than 10000 nM in series [4]. In addition, the AUC in series [5] came out at 12300 ng·h/mL.
As for `N#Cc1cnc(NC(=O)N2CCCc3cc(CN4CCCCOC4=O)c(C=O)nc32)cc1N[C@H]1CCOC1`, the IC50 in [1] is 7.2 nM; in [2] it was more than 10000 nM; in [3], 3.7 nM; in series [4], more than 10000 nM.
Regarding `COc1ccncc1Nc1cc(NC(=O)N2CCCc3cc(CN4CCOCC4=O)c(C=O)nc32)ncc1C#N`, the IC50 in [1] was 20.7 nM; in series [2] it was more than 10000 nM; in series [3], 69 nM; in [4], more than 10000 nM.
In the case of `COC[C@@H](C)Oc1cc(NC(=O)N2CCCc3cc(CN4CCOCC4=O)c(C=O)nc32)ncc1C#N`, the IC50 in series [1] was 7.8 nM; in [2], more than 10000 nM; in series [3], 2.9 nM; in [4], more than 10000 nM.
With `COC[C@H](C)Nc1cc(NC(=O)N2CCCc3cc(CN4CC[C@H](OC)C4=O)c(C=O)nc32)ncc1C#N`, the IC50 in series [1] is 40.5 nM; in series [2], more than 10000 nM; in series [3] it was 13.6 nM; in series [4] it was more than 10000 nM.
As to `CO[C@H]1CCOC[C@@H]1Oc1cc(NC(=O)N2CCCc3cc(CN4CCOCC4=O)c(C=O)nc32)ncc1C#N`, the IC50 was 40.8 nM in series [1], more than 10000 nM in series [2], 10.9 nM in [3] and more than 10000 nM in series [4].
Take `COCCOc1cc(NC(=O)N2CCCc3cc(CN4CCOCC4=O)c(C=O)nc32)ncc1C#N`: the IC50 is 51.8 nM in [1], more than 10000 nM in series [2], 27.7 nM in series [3] and more than 10000 nM in [4].
On to `N#Cc1cnc(NC(=O)N2CCCc3cc(CN4CCCCOC4=O)c(C=O)nc32)cc1N[C@@H]1CCOC1`, for which the concentration for half-maximal inhibition (IC50) in series [1] is 4.9 nM; in series [2] it was more than 10000 nM; in series [3] it was 2.3 nM; in series [4], more than 10000 nM.
Regarding `CO[C@@H]1CCN(c2cc(NC(=O)N3CCCc4cc(CN5C(=O)OC[C@@H]5C)c(C=O)nc43)ncc2C#N)C1`, the IC50 was 11.8 nM in series [1], more than 10000 nM in series [2], 13.3 nM in [3] and more than 10000 nM in [4].
Take `CO[C@H]1CCN(c2cc(NC(=O)N3CCCc4cc(CN5CCOCC5=O)c(C=O)nc43)ncc2C#N)C1`: in [6], the Cmax came out at 3360 ng/mL. Further, the half-inhibitory concentration (IC50) was 27.5 nM in [1], more than 10000 nM in series [2], 24.9 nM in series [3] and more than 10000 nM in series [4]. Moreover, the MRT in series [7] came out at 2.6 h. The molecule also showed an AUC in [5] of 14700 ng·h/mL. This molecule had a half-life in series [8] of 1.2 h.
Regarding `COCCSc1cc(NC(=O)N2CCCc3cc(CN4CCOCC4=O)c(C=O)nc32)ncc1C#N`, the IC50 in series [1] was 32.2 nM; in series [2], more than 10000 nM; in series [3], 20.8 nM; in series [4] it was more than 10000 nM.
Consider `COCCNc1cc(NC(=O)N2CCCc3cc(CN4CCN(C)CC4=O)c(C=O)nc32)ncc1C#N` [FGF401], for which, in series [9], the inhibition in vivo at 30 mg/kg is 52.5%. The IC50 in [1] is 16.3 nM; in series [3], 8.8 nM. The inhibition in vivo at 10 mg/kg in series [10] was 85.9%.
